# According to patent EP4140481A1, “PROTEIN-OLIGOMER BINDING AGENTS AND THERAPEUTIC USES THEREOF” (Galyan Bio, Inc., priority 2021, dated 2023):
# Where two headings read alike, the source gives them in different places.
# Key:
# mHTT = target: T1, mHTT (Homo sapiens, UniProt P42858); test: mHTT levels in striatal cells (immunocytochemistry); format: cell-based, mouse; conditions: STHdh 111/111, 10 µM, 3 hours heat shock, 48 hours treatment, percentage in comparison to untreated STHdh 111/111, 3B5H10 antibody; for remaining activity at 10 µM: read-out: mHTT after treatment
# T1 construct: host or cells: ST HDH Q111/111 mouse striatal cell line (knock-in locus)
# T1 sequence (P42858 with tags, fused parts or gaps with the stated changes): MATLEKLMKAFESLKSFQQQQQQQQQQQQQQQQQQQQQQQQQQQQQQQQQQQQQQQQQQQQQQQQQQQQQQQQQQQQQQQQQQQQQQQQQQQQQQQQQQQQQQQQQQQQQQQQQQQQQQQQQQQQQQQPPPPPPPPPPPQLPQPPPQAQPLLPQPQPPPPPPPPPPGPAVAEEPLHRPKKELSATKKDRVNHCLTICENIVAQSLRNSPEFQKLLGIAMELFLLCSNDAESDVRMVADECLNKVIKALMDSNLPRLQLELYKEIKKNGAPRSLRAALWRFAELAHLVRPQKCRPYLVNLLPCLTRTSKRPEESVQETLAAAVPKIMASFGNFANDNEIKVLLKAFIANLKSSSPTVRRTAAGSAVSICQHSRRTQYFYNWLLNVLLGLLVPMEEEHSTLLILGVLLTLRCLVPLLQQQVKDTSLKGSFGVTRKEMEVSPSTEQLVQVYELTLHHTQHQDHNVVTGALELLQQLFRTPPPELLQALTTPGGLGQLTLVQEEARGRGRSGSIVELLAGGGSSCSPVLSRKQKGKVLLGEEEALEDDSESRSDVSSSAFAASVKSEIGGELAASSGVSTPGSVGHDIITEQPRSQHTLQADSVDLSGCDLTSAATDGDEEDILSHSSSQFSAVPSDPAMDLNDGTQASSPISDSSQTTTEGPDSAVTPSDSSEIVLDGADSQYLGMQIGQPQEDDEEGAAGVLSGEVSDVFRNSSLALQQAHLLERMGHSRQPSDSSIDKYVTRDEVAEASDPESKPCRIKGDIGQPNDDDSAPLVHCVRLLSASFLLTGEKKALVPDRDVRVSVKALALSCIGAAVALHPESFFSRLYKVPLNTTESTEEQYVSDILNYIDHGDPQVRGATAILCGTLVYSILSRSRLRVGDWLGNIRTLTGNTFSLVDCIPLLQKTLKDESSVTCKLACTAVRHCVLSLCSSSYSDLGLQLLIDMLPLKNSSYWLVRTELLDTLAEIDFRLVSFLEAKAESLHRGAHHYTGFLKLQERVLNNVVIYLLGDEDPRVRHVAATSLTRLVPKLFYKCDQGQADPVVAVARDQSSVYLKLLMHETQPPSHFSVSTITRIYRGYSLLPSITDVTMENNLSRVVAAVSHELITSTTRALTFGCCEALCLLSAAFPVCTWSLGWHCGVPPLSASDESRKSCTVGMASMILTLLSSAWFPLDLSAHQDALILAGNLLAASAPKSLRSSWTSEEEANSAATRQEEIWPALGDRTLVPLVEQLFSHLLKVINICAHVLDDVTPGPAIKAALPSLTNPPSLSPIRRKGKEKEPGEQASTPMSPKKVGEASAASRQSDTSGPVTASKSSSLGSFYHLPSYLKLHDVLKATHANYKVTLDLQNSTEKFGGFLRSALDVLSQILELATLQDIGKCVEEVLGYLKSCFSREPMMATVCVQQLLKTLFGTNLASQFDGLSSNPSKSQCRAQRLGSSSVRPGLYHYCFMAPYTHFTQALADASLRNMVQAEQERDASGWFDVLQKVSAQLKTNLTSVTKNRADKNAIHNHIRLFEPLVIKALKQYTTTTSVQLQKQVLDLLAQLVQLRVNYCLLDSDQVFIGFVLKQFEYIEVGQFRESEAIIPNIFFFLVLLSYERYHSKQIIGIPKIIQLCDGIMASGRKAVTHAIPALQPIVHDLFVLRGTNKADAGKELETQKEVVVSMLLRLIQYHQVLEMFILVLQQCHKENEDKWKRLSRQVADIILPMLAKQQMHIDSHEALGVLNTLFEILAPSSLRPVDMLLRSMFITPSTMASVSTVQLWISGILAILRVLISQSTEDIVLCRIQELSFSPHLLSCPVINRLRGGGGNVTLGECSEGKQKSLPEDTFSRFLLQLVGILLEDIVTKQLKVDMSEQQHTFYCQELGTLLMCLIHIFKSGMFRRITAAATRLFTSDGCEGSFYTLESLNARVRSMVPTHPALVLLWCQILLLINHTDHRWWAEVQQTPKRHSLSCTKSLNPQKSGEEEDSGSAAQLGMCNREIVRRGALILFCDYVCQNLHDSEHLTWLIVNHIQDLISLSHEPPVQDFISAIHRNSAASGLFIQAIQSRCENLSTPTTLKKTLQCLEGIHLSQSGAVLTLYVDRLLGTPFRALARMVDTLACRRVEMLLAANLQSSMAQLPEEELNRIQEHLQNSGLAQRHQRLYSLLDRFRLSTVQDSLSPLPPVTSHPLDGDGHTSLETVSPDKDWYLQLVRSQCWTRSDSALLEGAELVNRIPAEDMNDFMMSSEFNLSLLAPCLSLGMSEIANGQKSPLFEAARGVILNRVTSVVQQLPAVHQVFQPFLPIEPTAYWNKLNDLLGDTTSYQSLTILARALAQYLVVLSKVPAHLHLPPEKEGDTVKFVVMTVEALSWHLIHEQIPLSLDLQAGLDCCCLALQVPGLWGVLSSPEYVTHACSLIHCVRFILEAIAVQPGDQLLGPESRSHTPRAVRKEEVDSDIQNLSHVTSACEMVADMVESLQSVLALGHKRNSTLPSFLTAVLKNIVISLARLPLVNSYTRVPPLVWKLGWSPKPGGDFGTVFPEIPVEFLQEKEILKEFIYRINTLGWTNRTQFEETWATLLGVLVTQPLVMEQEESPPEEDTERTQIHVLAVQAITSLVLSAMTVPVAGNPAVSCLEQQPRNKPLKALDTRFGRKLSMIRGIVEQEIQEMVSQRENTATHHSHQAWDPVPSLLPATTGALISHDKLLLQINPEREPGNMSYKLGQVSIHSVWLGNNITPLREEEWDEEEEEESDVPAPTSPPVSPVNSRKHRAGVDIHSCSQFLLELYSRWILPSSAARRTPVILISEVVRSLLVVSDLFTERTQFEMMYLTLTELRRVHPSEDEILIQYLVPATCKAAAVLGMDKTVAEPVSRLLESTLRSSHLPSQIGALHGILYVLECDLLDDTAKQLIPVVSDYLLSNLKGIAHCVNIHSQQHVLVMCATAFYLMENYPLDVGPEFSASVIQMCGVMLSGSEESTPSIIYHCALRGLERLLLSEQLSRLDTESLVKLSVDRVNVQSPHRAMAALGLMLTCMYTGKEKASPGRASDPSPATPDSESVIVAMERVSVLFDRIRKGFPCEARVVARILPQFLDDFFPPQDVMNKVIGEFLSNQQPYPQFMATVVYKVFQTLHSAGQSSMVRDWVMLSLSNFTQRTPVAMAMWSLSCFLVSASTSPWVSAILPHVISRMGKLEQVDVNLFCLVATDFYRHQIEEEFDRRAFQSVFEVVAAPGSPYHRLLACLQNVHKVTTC
# Experimental: (§1) Staining - Cells were permeabilized with 0.3% Triton X-100 in 4 °C PBS (pH 7.4 from ThermoFisher) for 10 minutes. Then the cells were washed two times with 4 °C PBS. Subsequently, cells are blocked with 3% NGS (normal goat serum from Thermo Fisher) in 4 ° C PBS for 1 hour. Cells were incubated with primary antibodies in blocking buffer (PBS, 3% NGS, 0.02% NaN3) over night at 4 °C. Primary antibodies were mouse antipolyglutamine monoclonal antibody 3B5H10 (Sigma-Aldrich) at 1:250 dilution and Guinea Pig anti-MAP2 polyclonal antibody (Synaptic Systems) at 1:500 dilution. 3B5H10 binds to diffuse mHTT. Diffuse mHTT is a monomeric and small oligomeric mHTT. Diffuse mHTT is correlated to pathological parameters in Huntington's disease. Compounds that bind the mHTT will reduce the levels of diffuse mHTT detected.
# Cells were washed 2 times with 4 °C PBS, and then incubated with secondary antibodies at 1:2000 dilution in blocking buffer for 1hour at room temperature. […] Cells were washed 2 times with 4 °C PBS, and then the nuclei were counterstain with DAPI (ThermoFisher) for 10 min at room temperature in the dark. Cells were washed 2 times with 4 °C PBS, and then 4 °C PBS was added to cells and then images were acquired. […] Table 11: Antibodies Used in Immunocytochemistry Studies
# Fluorescence Imaging - Imaging sessions were performed on a confocal microscope system (Carl Zeiss Microscopy) equipped with a dual spinning disk unit (Yokogawa). All components of the imaging system were controlled via the ZEN 2 software suite (Carl Zeiss Microscopy). The laser lines used were 405 nm, 488 nm and 639 nm to excite DAPI or the respective fluorophores. […] Nested t test was performed to calculate the significance amongst repeated measurements using GraphPad Prism software.
# as §1, with “For LC3 staining primary antibodies were mouse anti-LC3 mab (5F10) (nanoTools) at 1:500 dilution” for “3B5H10 binds to diffuse mHTT. Diffuse mHTT is a monomeric”, “Guinea Pig anti-MAP2 polyclonal antibody (Synaptic Systems) at 1:500 dilution.” for “small oligomeric mHTT. Diffuse mHTT is correlated to pathological parameters in Huntington's disease. Compounds that bind the mHTT will reduce the levels of diffuse mHTT detected.”
# Cells were washed 2 times with 4 °C PBS, and then incubated with secondary antibodies at 1:2000 dilution in blocking buffer for 1hour at room temperature. […] Cells were washed 2 times with 4 °C PBS, and then the nuclei were counterstain with DAPI (ThermoFisher) for 10 min at room temperature in the dark. Cells were washed 2 times with 4 °C PBS, and then 4 °C PBS was added to cells and then images were acquired.
# EC 50 value was determined with non-linear regression.
# [1] = tested on: STHdh 111/111 striatal cells; test: Cell viability after heat shock (CellTiter Glo); conditions: Mus musculus, read-out: Cell Viability striatal cells 3h heat shocked
# Experimental: Cell culture - ST HDH Q111/111 (CH00095, Coriell Institute) striatal derived cell line were grown at 33°C in DMEM (Sigma-Aldrich), supplemented with 10% fetal bovine serum (FBS), 1% Penicillin-Streptomycin (ThermoFisher Scientific), and 0.4 mg/ml G418 (Geneticin; Invitrogen). ST HDH Q111/111 are mouse striatal cells with polyQ length of 111.
# Pre-Treatment of striatal cell line - First the medium was removed and new DMEM (DMEM, high glucose, HEPES, no phenol red) medium, supplemented with 10% fetal bovine serum (FBS), 1% Penicillin-Streptomycin, containing 10 µM compound was added. The cells were incubated at 33 °C for 24 hours.
# Heat shock - Cells were heat shocked for 3 hours at 41 °C.
# Treatment - Medium was removed and new DMEM (DMEM, high glucose, HEPES, no phenol red) medium, supplemented with 1% fetal bovine serum (FBS), 1% Penicillin-Streptomycin, containing 10 µM compound was added. The cells were incubated at 33 °C for 48 hours.
# Cell Viability - Cell viability was measured according to manufacturer recommendations with CellTiter Glo (Promega).
# STHdh 7/7 striatal cells = test: Cell viability after heat shock (CellTiter Glo); format: cell-based; conditions: Mus musculus, 48 hours treatment, percentage in comparison to pre-heat shock cell viability, read-out: Cell Viability striatal cells 3h heat shocked
# Experimental: RESULTS-Table 12bsummarizes the effect of the compounds on cell viability. STHdh 7/7 were heat shocked for 3 hours and treated for 48 hours with small molecule compounds. Table 12b lists the cell viability in striatal cells after 48 hours.
# Effect of Compound 22 on Cell Viability of Wildtype Striatal Neurons - STHdh 7/7 cells are striatal cells that express wildtype huntingtin. These cells were cultured in the same conditions as described above for STHdh 111/111. The neurons were first heat shocked for 3 hours at 41 °C as described above. After 48 hours of treatment with the small molecule Compounds, cell viability was determined using the method described above. The "buffer" control is represents cells treated with a buffer only, without any compounds added. Some of the compounds show higher cell viability in comparison to control heat shocked STHdh 7/7 neurons with buffer and no treatment (Figure 5).
# Mur16 and/or Mur46 = test: Biacore Surface Plasmon Resonance (SPR) screening, binding to the target structures; conditions: for Binding properties: third analog screening, binding to the target structure in comparison to parent compound; for Biacore affinity: primary screen, compounds that demonstrated binding to Mur16 and/or Mur46
# Experimental: (§2) Exon 1 of the HTT huntingtin (NCBI Gene ID 3064) was expressed as a fusion protein with (i) TRX only (MurTRX); (ii) 16Q (Mur16); and (iii) 46Q (Mur46). MurTRX, Mur16, and Mur46 were produced and purified by HIStag and size exclusion chromatography (SEC). The protocol for MurTRX, Mur16 and Mur46 expression was adopted from Bennett, M.J. et al. Proc. Natl. Acad. Sci. USA 99, 11634-11639. 2002.
# Primary Screen - Results - 39 compounds determined from the in-silico screen were tested. Following solvent correction and blank subtraction, double referenced binding levels for samples were plotted against binding levels on both Mur 16 and Mur 46. […] The 4 compounds consistently bind with a higher response on the 16 Q surface than the 46 Q repeat surface, despite the MAb positive control showing the opposite trend.
# Mur46 = target: T2, Mur46 (Homo sapiens, UniProt P42858, INS38QQQQQQQQQQQQQQQQQQQQQQQQQ); test: Biacore SPR, Mur46 coupled flow cell; conditions: binding to Mur46; 0.1 mM compound concentration
# T2 construct: linker […]; made in house; host or cells: E. coli BL21(DE3) plysE, pET28a+
# T2 sequence (P42858 with tags, fused parts or gaps with the stated changes limits assumed): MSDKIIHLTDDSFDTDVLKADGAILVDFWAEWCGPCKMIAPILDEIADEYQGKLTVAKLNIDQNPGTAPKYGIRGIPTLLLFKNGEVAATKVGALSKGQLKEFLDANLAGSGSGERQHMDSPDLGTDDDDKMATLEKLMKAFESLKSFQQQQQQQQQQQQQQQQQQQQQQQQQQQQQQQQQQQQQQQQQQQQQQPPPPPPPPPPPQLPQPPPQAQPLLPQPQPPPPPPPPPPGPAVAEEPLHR
# Excerpt: as §2
# Biacore Affinity Values for Binding of Compounds to Mur46
# zebrafish larvae = test: Motility Zebrafish Model (MPP+ exposure, photomotor assay and sleep); conditions: 500 µM MPP+ alone (naïve 40.8)
# Experimental: Six groups were included in each experiment. Immediately after spawning, 40 embryos per group were allocated to a 24-well plate and system water (solvent) was added to all wells. […] MPP+ was prepared immediately prior to incubation and solutions were changed daily. At 120 hpf, drug treatment and MPP+ exposure was ceased and a 3X wash was performed with system water. Larvae were then relocated to 96-well plates for behavioral recording and placed in a separate recording room for 24-hour acclimation. Prior to behavioral recording, wells were fully replenished system water.
# Naive group was exposed to solvent only. Vehicle group was exposed to solvent and vehicle corresponding to the vehicle of 20 µM drug solution (0.02% DMSO). MPP+ positive control was exposed to solvent and 500 µM MPP+.
# Behavioral data was recorded from 1 p.m. on 6 dpf until shortly after wakening on 7 dpf. The recording consisted of a photomotor assay in which lights switch off and on in 30-minute intervals between 1 p.m. and 6 p.m., producing a consistent photomotor response. […] Upon lights being turned on again, the larvae cease movement followed by a return to baseline. This cycle is repeated five times. Following the last lights-off phase, constant illumination is presented until lights turn off at 10 p.m. for the night. Lights turn on again at 8 a.m. the following day.
# Average movement frequency was measured during 30-minute lights-on phases of photomotor assay.
# Distance moved (mm) was defined as the average distance moved during 30-minute lights-on phases of photomotor assay.
# All data are presented as mean ± standard error of the mean (sem). For analysis of differences between groups, a Kruskal-Wallis one-way ANOVA with Dunn's multiple comparison post hoc test was performed. P < 0.05 was considered statistically significant.
smiles,measurement,setting,value
CCc1[nH]c2ccc(C(=O)NCCN3CCN(C)CC3)cc2c1C [Compound 9],mHTT after treatment,mHTT,37%
same,viability at 10 µM,[1]; 48 h,88%
Cc1[nH]c2ccc(C(=O)NCCN3CCN(C)CC3)cc2c1C [Compound 24],remaining activity at 10 µM,mHTT,47%
same,viability at 10 µM,[1],103%
Cc1[nH]c2ccc(C(=O)NCCN3CCOCC3(C)C)cc2c1C [Compound 28],viability at 10 µM,STHdh 7/7 striatal cells,52.4%
same,remaining activity at 10 µM,mHTT,51%
same,viability at 10 µM,[1],18%
CC(C)N(CCNC(=O)c1ccc2[nH]c3c(c2c1)CCCC3)C(C)C [Compound 34],mHTT after treatment,mHTT,56%
same,viability at 10 µM,[1]; 48 h,60%
O=C(NCCN1CCCCC1)c1ccc2[nH]c3c(c2c1)CCC3 [Compound 35],remaining activity at 10 µM,mHTT,56%
same,viability at 10 µM,[1],103%
Cc1c(C)n(C)c2ccc(C(=O)NCCN(C(C)C)C(C)C)cc12 [Compound 39],viability at 10 µM,STHdh 7/7 striatal cells,154%
same,viability at 10 µM,[1]; 48 h,117%
Cc1[nH]c2ccc(C(=O)NCCNC(C)(C)C)cc2c1C [Compound 50],viability at 10 µM,STHdh 7/7 striatal cells,40.9%
same,remaining activity at 10 µM,mHTT,72%
same,viability at 10 µM,[1],67%
Cc1[nH]c2ccc(C(=O)NCCN(C)C3CCCC3)cc2c1C [Compound 55],mHTT after treatment,mHTT,91%
same,viability at 10 µM,[1]; 48 h,67%
CC(C)N(CCNC(=O)c1ccc2[nH]c3c(c2c1)CCCC3)C(C)C [Compound 57],Binding properties,Mur16 and/or Mur46,++
Cc1[nH]c2ccc(C(=O)Nc3ccccc3NC3CCN(C)CC3)cc2c1C [Compound 103],Binding properties,Mur16 and/or Mur46,++
Cc1[nH]c2ccc(C(=O)NCCN(C)C3CCCC3)cc2c1C [Compound 105],Binding properties,Mur16 and/or Mur46,++
O=C(O)C1Cc2c([nH]c3ccccc23)C(c2cccc(Br)c2)N1 (stereo not drawn) [Compound 109],Biacore affinity,Mur16 and/or Mur46,3 RU^2
Cc1[nH]c2ccccc2c1[C@]1(O)C(=O)Nc2c(Br)cc(Br)cc21 [Compound 110],Biacore affinity,Mur16 and/or Mur46,80 RU^2
Cc1[nH]c2ccc(C(=O)NCC(=O)NC(C)C)cc2c1C [Compound 113],Biacore affinity,Mur16 and/or Mur46,160 RU^2
Cc1[nH]c2ccc(C(=O)N(C)CCN(C)C3CC3)cc2c1C [Compound 114],Binding properties,Mur16 and/or Mur46,+/-
same,Biacore affinity,Mur46,20 RU^2
CON1CCC(NC(=O)c2ccc3[nH]c(C)c(C)c3c2)CC1 [Compound 115],viability at 10 µM,STHdh 7/7 striatal cells,136%
CCN(CC)C(=O)CNC(=O)c1ccc2[nH]c(C)c(C)c2c1 [Compound 116],viability at 10 µM,STHdh 7/7 striatal cells,118%
Cc1[nH]c2ccc(C(=O)N(C)CCN3C[C@@H](C)O[C@@H](C)C3)cc2c1C [Compound 117],viability at 10 µM,STHdh 7/7 striatal cells,118%
Cc1c(C)n(Cc2ccccc2)c2ccc(C(=O)NCCN(C)C)cc12 [Compound 118],viability at 10 µM,STHdh 7/7 striatal cells,110%
Cc1[nH]c2ccc(C(=O)N3CCN(C(C)C)CC3)cc2c1C [Compound 119],viability at 10 µM,STHdh 7/7 striatal cells,101%
COC[C@H](CCNC(=O)c1ccc2[nH]c(C)c(C)c2c1)OC [Compound 120],viability at 10 µM,STHdh 7/7 striatal cells,100%
Cc1[nH]c2ccc(C(=O)NCC(C)(C)OCC3CC3)cc2c1C [Compound 121],viability at 10 µM,STHdh 7/7 striatal cells,100%
CCN(CC)CCNCc1ccc2[nH]c(C)c(C)c2c1 [Compound 122],viability at 10 µM,STHdh 7/7 striatal cells,91.2%
CCN(CCNC(=O)c1ccc2[nH]ccc2c1)C1CC1 [Compound 123],viability at 10 µM,STHdh 7/7 striatal cells,83.8%
CO[C@@H](CNC(=O)c1ccc2[nH]c(C)c(C)c2c1)C(C)C [Compound 124],viability at 10 µM,STHdh 7/7 striatal cells,76.2%
Cc1[nH]c2ccc(C(=O)N(C)CCNC(=O)C(C)C)cc2c1C [Compound 125],viability at 10 µM,STHdh 7/7 striatal cells,67.9%
Cc1[nH]c2ccc(C(=O)N3CCCN(C(C)C)CC3)cc2c1C [Compound 126],viability at 10 µM,STHdh 7/7 striatal cells,42.5%
"C[n+]1ccc(-c2ccccc2)cc1 [MPP+, 1-methyl-4-phenylpyridinium, reference compound]",movement frequency,zebrafish larvae,13.3 movement bouts in 30 minutes
